Tests used:
human MetAP2 = target: T1, human MetAP2 (Homo sapiens, UniProt P50579); experiment: Enzymatic activity assay of human MetAP2 (LC/MS product peptide); assay type: biochemical; details: Mean ± SEM; substrate 150 μM, 40 minutes; read-out: hMetAP2 IC50
T1 construct: Full length MetAP2 (human and mouse) and MetAP1 (human) proteins are generated from Sf9 cells; made in house; host or cells: Sf9 cells
Description: (§1) Full length MetAP2 (human and mouse) and MetAP1 (human) proteins are generated from Sf9 cells using procedure similar to that described in Biochemistry 2003, 42, 5035-5042. MetAP2 and MetAP1 are purified in the presence of 5 mM MnCl2 and 2 mM CoCl2 respectively, and stored at −78° C. before use.
(§2) Inhibition of the catalytic activity of human and mouse MetAP2 by compounds in the present invention is measured by monitoring the formation of the product peptide (Gly-Lys-Val-Lys-Val-Gly-Val-Asn-Gly) from the substrate peptide (Met-Gly-Lys-Val-Lys-Val-Gly-Val-Asn-Gly) via LC/MS. The reaction is typically conducted by incubating the enzyme, test compound and substrate (150 μM) in a 100 μl assay buffer (50 mM HEPES, 100 mM NaCl, […], 0.17 mM Triton™ X-100 μl at pH 7.5) for 40 minutes. After the reaction is stopped by the addition of 200 μl CH3CN, the levels of product and remaining substrate are quantified with a mass spectrometer. The activity of human MetAP1 is monitored by the formation of the fluorescent product rhodamine-methionine from the substrate methionine-rhodamine-methionine on a spectrophotometer with the excitation light at 460 nm and emission light at 535 nm. The reaction is typically conducted by incubating the enzyme, test compound and substrate (50 μM) in a 100 μl assay buffer (50 mM HEPES, 100 mM NaCl, 0.1% BSA, 0.05% Tween®-20, 50 μM CoCl2) for 60 minutes. […]

mouse MetAP2 = target: T2, mouse MetAP2 (Mus musculus, UniProt O08663); experiment: Enzymatic activity assay of mouse MetAP2 (LC/MS product peptide); assay type: biochemical; details: Mean ± SEM; substrate 150 μM, 40 minutes; read-out: mMetAP2 IC50
T2 construct: Full length MetAP2 (human and mouse) and MetAP1 (human) proteins are generated from Sf9 cells; made in house; host or cells: Sf9 cells
Description: as §1, §2

human MetAP1 = target: T3, human MetAP1 (Homo sapiens, UniProt P53582); experiment: Enzymatic activity assay of human MetAP1 (fluorescence, rhodamine-methionine); assay type: biochemical; details: substrate 50 μM, 60 minutes; read-out: hMetAP1 IC50
T3 construct: Full length MetAP2 (human and mouse) and MetAP1 (human) proteins are generated from Sf9 cells; made in house; host or cells: Sf9 cells
Description: as §1, §2

[1] = target: T4, Human DPP-4 ((39-766)-His) (Homo sapiens, UniProt P27487); experiment: Enzymatic activity assay of human DPP-4 (Gly-Pro-AMC fluorescence); assay type: biochemical; details: Mean ± SEM; substrate 10 μM, 30 minutes; read-out: hDPP-4 IC50
T4 construct: Human DPP-4 ((39-766)-His); His (C); made in house
Description: (§3) Human DPP-4 ((39-766)-His) and mouse DPP-4 ((29-760)-His) are purified for use in the assay. The final concentration of hDPP-4 and mDPP-4 in the assay is 0.04 nM and 0.22 nM respectively.
(§4) Inhibition of the catalytic activity of human and mouse DPP-4 by the compound in the present invention is monitored by the formation of product fluorescence AMC (7-amido-4-methylcoumarin hydrobromide) from substrate Gly-Pro-AMC (Sigma, G2761) on an Envision plate reader. The reaction is typically conducted by incubating the enzyme, test compound, and substrate (10 μM) in a 75 μl assay buffer (0.01% BSA, 0.1 mM EDTA, […], 0.01% Triton™-X100, 0.1 M NaCl at pH 7.5) for 30 minutes. After the reaction is stopped by the addition of 25 μl ZnSO4 (10 mM), the formation of fluorescent product AMC is measured on an Envision plate reader with the excitation wavelength at 355 nm and emission wavelength at 460 nm. The IC50 value is calculated typically from a 10-point dose titration curve using the 4-parameter logistic equation.

[2] = target: T5, mouse DPP-4 ((29-760)-His) (Mus musculus, UniProt P28843); experiment: Enzymatic activity assay of mouse DPP-4 (Gly-Pro-AMC fluorescence); assay type: biochemical; details: Mean ± SEM; substrate 10 μM, 30 minutes; read-out: mDPP-4 IC50
T5 construct: mouse DPP-4 ((29-760)-His); His (C); made in house
Description: as §3, §4

obese DIO mice = experiment: Therapeutic weight loss effect in high fat diet induced obese (DIO) mice; assay type: in vivo, mouse; details: day 14
Description: To determine the therapeutic weight loss effects and improvement of metabolic parameters, the compound from the invention is tested in the high fat diet (HFD) feeding induced obese mouse model (DIO mice). In this model, C57/Bl6J male mouse is fed with the 60% HFD (D12492i, Research Diets) for 16˜28 weeks to establish obesity with body weight reaching around 50 g. The mice will gradually increase the body weight to about 50 g and maintain that weight in this obese state. Test compound (via the vehicle of 0.5% HEC plus 0.25% Tween®-80 at 5 mL/kg) is administered orally to the obese DIO mice once or twice daily throughout the study duration. The dose-dependent weight loss of obese DIO mice for Example 1 of the oral treatment at 20 mg/kg and 60 mg/kg once daily is about 4% and 17% weight loss compared to the vehicle group at day 14, respectively. The data support that the compound of Example 1 is associated with desired weight loss and could offer a therapeutic weight loss effect.

plasma DPP-4 = target: T6, plasma DPP-4 (Mus musculus, UniProt P28843); experiment: DPP-4 pharmacodynamics assay in mouse (plasma DPP-4 enzyme activity); assay type: in vivo; details: C57B/L6 lean mice, oral gavage, vehicle group = 0%
T6 construct: Plasma, isolated from the blood samples, is used to determine the plasma DPP-4 enzyme activity; from tissue; host or cells: plasma of C57B/L6 mice dosed with compound
Description: To determine the in vivo DPP-4 inhibition by MetAP2 plus DPP-4 dual inhibitor compounds, C57B/L6 lean mice are administrated with the compound in fed states and then DPP-4 target engagement in plasma is measured. Animals are weighed and randomized by body weight. Each mouse is dosed via oral gavage with vehicle or testing compound formulated with vehicle for up to 3 times. The first dose is administrated at 9˜10 am on day 1. The second dose is administrated at 16:30˜17:30 on day 1. The third dose is administrated at 9˜10 am on day 2. The mice are fasted for 6 hours after the last dose before termination at ˜[…] on day 2. Blood samples are collected at 1 hour after the first dosing and upon termination. EDTA-K2 at final concentration of 5 mM is used as an anticoagulant. Plasma, isolated from the blood samples, is used to determine the plasma DPP-4 enzyme activity. Plasma DPP-4 enzyme activity in the present invention is monitored by the formation rate of fluorescence AMC from substrate Gly-Pro-AMC (Sigma, G2761) via Envision plate reader. […] Fluorescence signal is read immediately after the start of the reaction in kinetic model in Envision plate reader. […] The plasma DPP-4 activity is calculated from reaction velocity. […]

T6 sequence (P28843 37-760 limits assumed): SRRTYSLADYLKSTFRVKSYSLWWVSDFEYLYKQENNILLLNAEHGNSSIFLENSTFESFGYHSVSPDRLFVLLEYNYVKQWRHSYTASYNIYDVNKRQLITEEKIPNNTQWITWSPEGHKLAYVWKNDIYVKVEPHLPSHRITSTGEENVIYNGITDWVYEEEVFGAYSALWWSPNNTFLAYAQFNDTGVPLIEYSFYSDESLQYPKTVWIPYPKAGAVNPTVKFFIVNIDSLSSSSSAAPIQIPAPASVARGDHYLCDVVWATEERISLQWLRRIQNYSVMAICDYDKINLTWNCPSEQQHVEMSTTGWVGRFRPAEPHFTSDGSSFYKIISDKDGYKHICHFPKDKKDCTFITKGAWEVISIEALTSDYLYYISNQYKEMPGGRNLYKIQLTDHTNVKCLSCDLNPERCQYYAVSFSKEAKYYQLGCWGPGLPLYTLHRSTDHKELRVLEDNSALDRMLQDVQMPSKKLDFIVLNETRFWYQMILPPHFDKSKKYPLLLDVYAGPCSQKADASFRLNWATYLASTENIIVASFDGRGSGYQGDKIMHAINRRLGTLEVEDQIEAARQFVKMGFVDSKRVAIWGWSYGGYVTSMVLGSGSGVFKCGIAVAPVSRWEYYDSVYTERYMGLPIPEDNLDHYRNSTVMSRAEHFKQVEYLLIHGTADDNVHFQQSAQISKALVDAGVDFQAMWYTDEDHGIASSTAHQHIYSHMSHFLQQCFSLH
T4 sequence (P27487 39-766): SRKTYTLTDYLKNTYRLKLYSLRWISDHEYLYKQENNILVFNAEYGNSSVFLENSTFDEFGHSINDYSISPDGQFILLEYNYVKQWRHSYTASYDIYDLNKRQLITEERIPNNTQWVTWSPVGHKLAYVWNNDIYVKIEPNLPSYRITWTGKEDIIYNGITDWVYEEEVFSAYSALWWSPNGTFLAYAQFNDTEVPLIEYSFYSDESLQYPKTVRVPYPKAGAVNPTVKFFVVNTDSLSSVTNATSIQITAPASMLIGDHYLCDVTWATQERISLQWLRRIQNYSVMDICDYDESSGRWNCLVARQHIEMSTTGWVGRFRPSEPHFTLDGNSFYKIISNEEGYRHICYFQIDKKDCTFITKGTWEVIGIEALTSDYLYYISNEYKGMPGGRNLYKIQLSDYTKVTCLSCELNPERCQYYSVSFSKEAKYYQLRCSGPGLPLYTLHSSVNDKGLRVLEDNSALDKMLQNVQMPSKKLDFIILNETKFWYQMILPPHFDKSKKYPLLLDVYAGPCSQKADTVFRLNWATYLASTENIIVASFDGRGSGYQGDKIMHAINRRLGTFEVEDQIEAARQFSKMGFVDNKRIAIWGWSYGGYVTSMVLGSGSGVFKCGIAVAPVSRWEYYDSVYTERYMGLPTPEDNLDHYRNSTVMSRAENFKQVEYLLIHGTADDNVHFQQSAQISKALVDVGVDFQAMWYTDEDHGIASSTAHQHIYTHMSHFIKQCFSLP
T5 sequence (P28843 29-760): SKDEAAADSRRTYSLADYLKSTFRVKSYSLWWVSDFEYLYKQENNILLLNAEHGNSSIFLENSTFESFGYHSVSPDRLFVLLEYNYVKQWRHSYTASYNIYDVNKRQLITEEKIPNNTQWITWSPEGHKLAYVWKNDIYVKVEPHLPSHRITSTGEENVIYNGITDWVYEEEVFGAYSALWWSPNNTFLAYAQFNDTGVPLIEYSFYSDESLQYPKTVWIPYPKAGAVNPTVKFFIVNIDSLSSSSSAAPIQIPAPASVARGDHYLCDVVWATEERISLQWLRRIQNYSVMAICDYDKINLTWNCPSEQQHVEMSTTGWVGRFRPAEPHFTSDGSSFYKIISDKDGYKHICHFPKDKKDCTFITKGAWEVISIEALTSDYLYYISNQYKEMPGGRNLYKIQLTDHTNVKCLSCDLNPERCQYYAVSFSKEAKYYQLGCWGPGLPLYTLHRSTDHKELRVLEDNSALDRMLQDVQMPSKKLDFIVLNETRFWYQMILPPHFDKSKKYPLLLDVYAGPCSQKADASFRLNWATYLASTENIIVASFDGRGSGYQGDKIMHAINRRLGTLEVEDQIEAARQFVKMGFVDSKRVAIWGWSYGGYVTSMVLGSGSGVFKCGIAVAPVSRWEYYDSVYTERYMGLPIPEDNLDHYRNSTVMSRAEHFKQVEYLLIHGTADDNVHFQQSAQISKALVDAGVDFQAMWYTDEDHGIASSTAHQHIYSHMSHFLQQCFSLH
T1 sequence (P50579 whole entry): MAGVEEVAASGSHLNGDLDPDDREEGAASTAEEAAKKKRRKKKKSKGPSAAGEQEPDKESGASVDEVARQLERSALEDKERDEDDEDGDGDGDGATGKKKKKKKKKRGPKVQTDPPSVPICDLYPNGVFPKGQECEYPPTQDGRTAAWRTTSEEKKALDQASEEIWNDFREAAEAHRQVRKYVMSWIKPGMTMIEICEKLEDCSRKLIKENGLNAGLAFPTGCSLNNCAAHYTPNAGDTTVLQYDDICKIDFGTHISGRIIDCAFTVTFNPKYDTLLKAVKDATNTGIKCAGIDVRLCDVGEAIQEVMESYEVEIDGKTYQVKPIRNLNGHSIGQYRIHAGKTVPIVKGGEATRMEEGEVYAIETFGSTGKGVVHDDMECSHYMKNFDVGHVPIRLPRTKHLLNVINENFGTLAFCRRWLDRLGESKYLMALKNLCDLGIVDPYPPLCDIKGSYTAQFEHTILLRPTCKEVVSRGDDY
T2 sequence (O08663 whole entry): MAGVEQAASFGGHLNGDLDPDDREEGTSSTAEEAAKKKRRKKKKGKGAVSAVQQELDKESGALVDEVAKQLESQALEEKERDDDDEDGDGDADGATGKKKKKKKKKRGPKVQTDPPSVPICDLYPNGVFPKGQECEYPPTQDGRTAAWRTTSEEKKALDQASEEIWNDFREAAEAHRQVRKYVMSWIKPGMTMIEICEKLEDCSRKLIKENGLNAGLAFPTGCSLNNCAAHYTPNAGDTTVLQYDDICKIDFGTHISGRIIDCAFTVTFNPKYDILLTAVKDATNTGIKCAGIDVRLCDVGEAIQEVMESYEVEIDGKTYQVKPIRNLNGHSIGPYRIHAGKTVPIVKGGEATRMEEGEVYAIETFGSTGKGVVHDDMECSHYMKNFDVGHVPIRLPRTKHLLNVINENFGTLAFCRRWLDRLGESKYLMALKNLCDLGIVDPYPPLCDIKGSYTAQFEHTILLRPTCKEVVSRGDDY

`N[C@H]1CN(c2ncc(Oc3c[nH]nc3C3=CCC(F)(F)CC3)cn2)C[C@@H]1c1cc(F)c(F)cc1F` [Example 1, (3R,4S)-1-[5-[[3-(4,4-Difluorocyclohexen-1-yl)-1H-pyrazol-4-yl]oxy]pyrimidin-2-yl]-4-(2,4,5-trifluorophenyl)pyrrolidin-3-amine] was tested, and the IC50 (human MetAP2) was 9 ± 3 nM, the IC50 (mouse MetAP2) was 36 ± 34 nM and the IC50 (human MetAP1) was over 30000 nM. For the same molecule, the IC50 [1] was 6 ± 2 nM, the IC50 [2] was 26 ± 11 nM and the “weight loss compared to the vehicle group” value (obese DIO mice; oral 20 mg/kg once daily) was “about 4%”. For the same molecule, the “weight loss compared to the vehicle group” value (obese DIO mice; oral 60 mg/kg once daily) was about 17%, the “plasma DPP-4 inhibition” value (plasma DPP-4; 1 hour after the first dosing) was 86% and the “plasma DPP-4 inhibition” value (plasma DPP-4; upon termination (6 hours after the last dose, day 2)) was 83%.
